Measured values published in ChEMBL document CHEMBL3997825, “Discovery of 2-oxopiperazine dengue inhibitors by scaffold morphing of a phenotypic high-throughput screening hit” (Bioorg Med Chem Lett, 2017).

Legend:
Type in all cases: functional, cell-based
dengue virus type 1 = test: Antiviral activity against DENV1 West Pacific infected in BHK21 cells assessed as reduction in viral titer after 48 hrs by plaque assay; conditions: BHK-21, 48 h
dengue virus type 2 [1] = test: Antiviral activity against DENV2 New Guinea C infected in human A549 cells assessed as reduction in viral titer after 48 hrs by plaque assay; conditions: Thailand/NGS-C/1944, A549, 48 h
dengue virus type 2 [2] = test: Antiviral activity against DENV2 TSVO1 infected in C6/36 cells assessed as reduction in viral titer after 72 hrs by plaque assay; conditions: TSVO1, C6/36, 72 h
dengue virus type 3 = test: Antiviral activity against DENV3 H87 infected in BHK21 cells assessed as reduction in viral titer after 72 hrs by plaque assay; conditions: H87, BHK-21, 72 h
dengue virus type 4 = test: Antiviral activity against DENV4 H241 infected in BHK21 cells assessed as reduction in viral titer after 72 hrs by plaque assay; conditions: H241, BHK-21, 72 h

Measured: EC50

COc1ccc(-c2csc(NC(=O)c3cc(C(C)(C)C)cc(C(C)(C)C)c3)n2)cc1
1000 to 4100 nM: dengue virus type 1 | dengue virus type 2 [1] | dengue virus type 2 [2] | dengue virus type 3 | dengue virus type 4
